Assay: in vitro
Details: human, hela cells, % viability

| SMILES | viability at 28.5 h, 10 µM |
| --- | --- |
| Cc1ccc2c(c1)OC(C)(C)CC2NS(=O)(=O)N1CCN(C)CC1 (centres unmarked) [CBK307271] | 103% |
| O=C(NCCc1noc(CO)n1)N(Cc1ccsc1)C1CCCCC1 [CBK307273] | 98.5% |
| Cn1c(=O)n(C)c2cc(CNC(=O)C3NCCc4[nH]cnc43)ccc21 (centres unmarked) [CBK307274] | 89.2% |
| CCOC(=O)c1cnc2c(Cl)cc(Cl)cc2c1NCCN1CCOCC1 [CBK307278] | 83.5% |
| CN1CCC(NC(=O)c2cccc(OCC(=O)N3CCCCC3)c2)C1=O (centres unmarked) [CBK307281] | 78.3% |
| Cc1c[nH]c(CN(C)C(=O)c2cccc(NC(=O)C3CCCC3)c2)n1 [CBK307282] | 91.4% |
| COc1ccc(CN2CC(C(=O)O)C2)cc1Cn1cncn1 [CBK307284] | 110% |
| CCCN1CC(NS(=O)(=O)c2cc(-n3cccn3)ccc2OC)CC1=O (centres unmarked) [CBK307285] | 107% |
| Cn1ncc(N2CCC(CNC(=O)c3cc(F)ccc3Cl)C2)cc1=O (centres unmarked) [CBK307286] | 92.4% |
| CN1CCC(Cc2nc(-c3cccc(OC(F)F)c3)n(CCO)n2)CC1 [CBK307294] | 90.2% |
| COc1cccc2c(=O)n(CCCn3nc(C)nc3C)cnc12 [CBK307295] | 97% |
| COCCn1c(CO)nnc1[C@H]1C[C@@H](NC(=O)c2ccc(C)cc2F)C1 [CBK307296] | 101% |
| COc1cccc(CN2CCCC(NC(=O)c3csc(C(C)=O)c3)C2)c1 (centres unmarked) [CBK307297] | 87.6% |
| Cc1ccc(Cc2cnc(NC(=O)CN3CCCCC3)s2)cc1Cl [CBK307299] | 84.9% |
| Cc1cc(-c2cn3cc(C(=O)N4CCCC4)nc3c(=O)n2C)c(C)o1 [CBK307300] | 83.3% |
| CCOC(=O)C1CCCN(Cc2c[nH]nc2-c2ccc(OC)cc2F)C1 (centres unmarked) [CBK307304] | 91.1% |
| CCCCn1ncnc1-c1cnc2ccnn2c1C [CBK307305] | 114% |
| O=C(c1nc[nH]n1)N1CCN(c2nccc(CCC(F)(F)F)n2)CC1 [CBK307306] | 106% |
| Cc1cc2[nH]c(=O)oc2cc1S(=O)(=O)NCCN1CCCCC1CO (centres unmarked) [CBK307307] | 80.9% |
| CCn1cc(-c2nc3cc(S(=O)(=O)NC(C)C)ccc3n2C(C)C)cn1 [CBK307311] | 98.7% |
| CCN(CCc1nc2cc(OC)ccc2[nH]1)C(=O)c1ccc(=O)n(C)c1 [CBK307312] | 77% |
| CCNC(=O)NC1CC(C)(C)Cc2c1cnn2-c1ccc(OC)cc1 (centres unmarked) [CBK307313] | 90.6% |
| Cc1n[nH]c(C)c1-c1ccc2c(cnn2C)c1 [CBK307314] | 70.3% |

| SMILES | viability at 28.5 h, 10 µM |
| --- | --- |
| CC(=O)OCc1c(C)cc(C)c(CN(C)C(C)c2ccncn2)c1C (centres unmarked) [CBK307315] | 95.1% |
| Cc1nn(CCNC(=O)C2CC(=O)N(Cc3ccccn3)C2)c(C)c1Cl (centres unmarked) [CBK307316] | 85.1% |
| COc1nc(-c2ccc(N(C)C)nc2)nn1C [CBK307317] | 100% |
| c1cnn(CCCNc2nc3nonc3nc2N2CCCCCC2)c1 [CBK307318] | 110% |
| CCN(CCO)C(=O)c1coc(COc2ccc3sc(C)nc3c2)n1 [CBK307321] | 89.7% |
| COCCn1cnnc1CCNC(=O)Cc1cccc(O)c1 [CBK307322] | 112% |
| O=c1cc(N2CCOCC2)cnn1CCCCOc1ccccc1 [CBK307327] | 97.9% |
| COc1ccc(C(NC(=O)c2c(C)nc3sccn23)C2CC(O)C2)cn1 (centres unmarked) [CBK307330] | 95.3% |
| COc1ccc(Cl)cc1CN(C)C(=O)c1cc(C(C)C)n2ncnc2n1 [CBK307331] | 84.7% |
| O=C(c1ccc(N2CC=CCC2)nc1)N1CCC(N2CCOCC2)CC1 [CBK307334] | 80% |
| O=C(O)C1(Oc2ccc3ncccc3c2)CCN(CC2CCOC2)CC1 (centres unmarked) [CBK307336] | 93.2% |
| CSc1nnc(CC2CCN(C(=O)c3cccc(N)c3)CC2)n1C [CBK307339] | 77.8% |
| COCC(=O)N1CCC(Oc2ccc3ncccc3c2)(C(=O)O)CC1 [CBK307340] | 103% |
| Cc1ccc(OCc2occc2C(=O)N2CCC(O)(CN(C)C)C2)cc1 (centres unmarked) [CBK307341] | 95.6% |
| Cc1ccc(-n2cccn2)cc1S(=O)(=O)N1CCNCC1C (centres unmarked) [CBK307344] | 85.1% |
| c1ccc(N2CCN(Cc3cncn3C3CCCCC3)CC2)nc1 [CBK307345] | 109% |
| Cc1sc2ncn(CC3(O)CCCNC3)c(=O)c2c1-c1ccc(F)cc1 (centres unmarked) [CBK307346] | 96% |
| O=C(NCC(F)F)c1cn2cc(-c3cccs3)n(CC3CC3)c(=O)c2n1 [CBK307347] | 105% |
| Cc1ncccc1C(=O)NC(CC(C)C)c1nnc2n1CCNCC2 (centres unmarked) [CBK307348] | 80.5% |
| CCOC(=O)c1cn([C@H](CO)CCSC)cc(Oc2ccccc2)c1=O [CBK307349] | 98.9% |
| CCN(Cc1c[nH]nc1-c1ccc(OC)cc1F)CC1CCCO1 (centres unmarked) [CBK307350] | 102% |
| CC1(C)Cc2c(cnn2-c2ccccc2)C(NS(=O)(=O)C2CC2)C1 (centres unmarked) [CBK307351] | 102% |
| Nc1nc(C2CC(N)C2)cc(N2CCC(Oc3ccccc3Cl)CC2)n1 (centres unmarked) [CBK307356] | 88.6% |

| SMILES | viability at 28.5 h, 10 µM |
| --- | --- |
| COCCn1ccnc1C1CCN(C(=O)COc2cccc(F)c2)CC1 [CBK307362] | 91.3% |
| CC(=O)NCCC1CCN(c2nc(C(C)(C)C)nc3c2cnn3C)CC1 [CBK307364] | 96.7% |
| CC(=O)c1cc(CN2CCCOC(Cn3cccn3)C2)cs1 (centres unmarked) [CBK307365] | 84.3% |
| COCCn1cnnc1C(C)NC(=O)c1nc2ccccc2[nH]1 (centres unmarked) [CBK307366] | 101% |
| O=C(NCCF)c1cn2cc(-c3cccs3)n(CC3CC3)c(=O)c2n1 [CBK307367] | 96.8% |
| CN(CCO)C(=O)c1cn2cc(-c3cccs3)n(CC3CC3)c(=O)c2n1 [CBK307370] | 92.8% |
| Cc1ccsc1CCNC(=O)C1(Oc2cccnc2C)CCNCC1 [CBK307374] | 84.2% |
| O=C(CSc1nc(-c2cccs2)cc(C(F)(F)F)n1)NN1CCOCC1 [CBK307375] | 98.1% |
| Cc1ccn2cc(CNC(=O)N(C)CCc3scnc3C)nc2c1 [CBK307379] | 87.5% |
| CC(C)(CN1CCCC1)NC(=O)N1CCN(Cc2cccc(O)c2)CC1 [CBK307380] | 86.6% |
| CCc1nc(-c2ccc(N(C)C)nc2)nn1C [CBK307381] | 106% |
| Cc1nc(-c2cccc(OC(F)F)c2)n(C2CCN(C)CC2)n1 [CBK307382] | 97.1% |
| Cc1ccc(C(CCO)Nc2ncnc3c2c(C)nn3C)cc1 (centres unmarked) [CBK307387] | 82.1% |
| Cc1nnc(SCC(=O)N2CCN(c3ccc(Cl)cc3)CC2)s1 [CBK307389] | 87.5% |
| Cc1cc2[nH]cc(C(=O)N3CCCC3c3ccco3)c(=O)n2n1 (centres unmarked) [CBK307390] | 82.9% |
| Cc1nnc2ncc(-c3ccccc3C(=O)N(C(C)C)C(C)C)cn12 [CBK307393] | 94.7% |
| Cc1cc(C)n(CCC(=O)NCC(c2ccccn2)N2CCOCC2)n1 (centres unmarked) [CBK307396] | 105% |
| CCN1CC2(CCN(Cc3cccc(-c4ccccn4)c3)CC2)CC1=O [CBK307399] | 107% |
| CCn1c(CC2CCN(C(=O)CCn3nnnc3C)CC2)nn(C)c1=O [CBK307400] | 104% |
| CCC(C(=O)Nc1nccs1)N(C)Cc1c(C)nn(C(C)C)c1C (centres unmarked) [CBK307402] | 103% |
| CC1(C)Cc2c(cnn2-c2ccc(F)cc2)C(NS(C)(=O)=O)C1 (centres unmarked) [CBK307403] | 92.3% |
| CC(C)Cn1cncc1CNC(=O)Nc1ccc2c(cnn2C)c1 [CBK307405] | 93.8% |
| COCCN(Cc1cnn(C)c1)C(=O)Cc1ccc(Cl)cc1 [CBK307407] | 97% |

| SMILES | viability at 28.5 h, 10 µM |
| --- | --- |
| COC(=O)c1cccc(OCC(O)Cn2ccnc2)c1 (centres unmarked) [CBK307408] | 102% |
| COCCNc1nc2c(c(N3CCCC(C#N)C3)n1)CCNCC2 (centres unmarked) [CBK307412] | 87.2% |
| CCc1c(C)sc(NC(=O)C2CCC2)c1C(=O)NCc1cccnc1 [CBK307414] | 115% |
| Cn1c(CN2CCCC2)nc2cc(NC(=O)C3CCCCC3)ccc21 [CBK307418] | 98.6% |
| CN(C)CC(=O)Nc1cc(C(F)(F)F)ccc1Cl [CBK307420] | 87.2% |
| COc1nc2ccn(CCN3C(=O)CCC3=O)c(=O)c2cc1C#N [CBK307422] | 94.7% |
| Nc1cc(=O)[nH]c(SCC(=O)N2CCc3ccccc32)n1 [CBK307424] | 94.4% |
| CCCN1CCCC(NS(=O)(=O)c2cc(-n3cccn3)ccc2OC)C1 (centres unmarked) [CBK307426] | 91.8% |
| COCCn1cnnc1C(C)NC(=O)N(C)Cc1nc2ccccc2s1 (centres unmarked) [CBK307427] | 88.2% |
| Cc1nc(NCCN2CCCC(CO)C2)nc2c1CCCC2 (centres unmarked) [CBK307430] | 82% |
| CN1CCC(O)(Cn2cnc3cc(-c4ccc(F)cc4)sc3c2=O)CC1 [CBK307434] | 101% |
| COCCN(Cc1cnn(C)c1)C(=O)Cc1coc2cc(C)c(Cl)cc12 [CBK307435] | 108% |
| O=C(O)[C@H]1CCCN1Cc1cc(Cl)ccc1OCCCn1ccnc1 [CBK307436] | 109% |
| CC(O)c1cc2n(n1)CCN(C(=O)c1csc(Cc3ccccc3)n1)C2 (centres unmarked) [CBK307437] | 98.1% |
| CCNC(=O)C1CCN(Cc2c[nH]nc2-c2ccc(F)cc2)C1 (centres unmarked) [CBK307438] | 90% |
| CCCN(Cc1nccn1C)C(=O)Cn1nc(C)c2ccccc2c1=O [CBK307441] | 95.4% |
| CCCC(NC(=O)Nc1ccnn1CC(C)C)c1nccn1C (centres unmarked) [CBK307444] | 92.7% |
| Cc1nc(N)nc(NCCC2CCCN(C)C2)c1Cl (centres unmarked) [CBK307445] | 88.6% |
| Cn1c(N2CC[C@H](O)C2)nc2cc(C(=O)NCCC3CCCC3)ccc21 [CBK307447] | 87.9% |
| CC(C)c1nccn1CCCNC(=O)N1CCCC(c2ccncn2)C1 (centres unmarked) [CBK307448] | 88.7% |
| CSc1ncc(CNC(=O)CC2CCc3ccccc32)n1C (centres unmarked) [CBK307450] | 85.9% |
| CCc1ccc(NC(=O)N2CCCCC2CCn2ccnc2)cc1 (centres unmarked) [CBK307453] | 110% |
| COc1ccc(C(=O)N2CCN(c3nc4c(s3)c(C)nn4C)CC2)cc1 [CBK307457] | 96% |

From PMC12040169 (PLOS Biology, 2025)
